Measured values reported in patent publication US20020028938A1, “Prostaglandin endoperoxide H synthase biosynthesis inhibitors” (priority 1997, published 2002).

**Q.** Which melting point does the source give for `C[Se](=O)(=O)c1ccc(-c2cnn(-c3ccc(F)cc3)c(=O)c2-c2ccc(F)cc2)cc1` here?
**A.** 110 to 150 °C

**Q.** For `CS(=O)(=O)c1ccc(-c2cn[nH]c(=O)c2-c2ccc(F)cc2)cc1` [Example 11, 4-(4-Fluorophenyl)-5-[4-(methylsulfonyl)phenyl]-3(2H)-pyridazinone], which melting point is on record?
**A.** 255 to 256 °C

**Q.** For `CS(=O)(=O)c1ccc(-c2cnn(Cc3ccccn3)c(=O)c2-c2ccc(F)cc2)cc1` [Example 27, 2-(2-Pyridylmethyl)-4-(4-fluorophenyl)-5-[4-(methylsulfonyl)phenyl]-3(2H)-pyridazinone], which melting point is on record?
**A.** 182 to 184 °C

**Q.** For `CS(=O)(=O)c1ccc(-c2cnn(Cc3ccncc3)c(=O)c2-c2ccc(F)cc2)cc1` [Example 28, 2-(4-Pyridylmethyl)-4-(4-fluorophenyl)-5-[4-(methylsulfonyl)phenyl]-3(2H)-pyridazinone], which melting point is on record?
**A.** 153 to 156 °C

**Q.** For `CS(=O)(=O)c1ccc(-c2cnn(Cc3cccnc3)c(=O)c2-c2ccc(F)cc2)cc1` [Example 29, 2-(3-Pyridylmethyl)-4-(4-fluorophenyl)-5-[4-(methylsulfonyl)phenyl]-3(2H)-pyridazinone], which melting point is on record?
**A.** 160 to 161 °C

**Q.** Which melting point does the source give for `CS(=O)(=O)c1ccc(-c2cnn(Cc3ccc4cc(F)ccc4n3)c(=O)c2-c2ccc(F)cc2)cc1` [Example 30, 2-(6-Fluoroquinolin-2-ylmethyl)-4-(4-fluorophenyl)-5-[4-(methylsulfonyl)phenyl]-3(2H)-pyridazinone] here?
**A.** 116 to 119 °C

**Q.** Which melting point does the source give for `CCN(CC)c1ccc(C(=O)Cn2ncc(-c3ccc(S(C)(=O)=O)cc3)c(-c3ccc(F)cc3)c2=O)cc1` [Example 44, 2-(4-Diethylaminophenacyl)-4-(4-fluorophenyl)-5-[4-(methylsulfonyl)phenyl]-3(2H)-pyridazinone] here?
**A.** 105 to 108 °C

**Q.** Which melting point does the source give for `CS(=O)(=O)c1ccc(-c2cnn(CC(=O)c3ccc(Cl)cc3)c(=O)c2-c2ccc(F)cc2)cc1` [Example 47, 2-(4-Chlorophenacyl)-4-(4-fluorophenyl)-5-[4-(methylsulfonyl)phenyl]-3(2H)-pyridazinone] here?
**A.** 186 to 188 °C

**Q.** With `CS(=O)(=O)c1ccc(-c2cnn(CC(=O)c3ccc(C#N)cc3)c(=O)c2-c2ccc(F)cc2)cc1` [Example 49, 2-(4-Cyanophenacyl)-4-(4-fluorophenyl)-5-[4-(methylsulfonyl)phenyl]-3(2H)-pyridazinone] as the compound, how does the melting point read?
**A.** 188 to 189 °C

**Q.** Which melting point does the source give for `CS(=O)(=O)c1ccc(-c2cnn(CCc3ccccc3)c(=O)c2-c2ccc(F)cc2)cc1` [Example 51, 2-Phenethyl-4-(4-fluorophenyl)-5-[4-(methylsulfonyl)phenyl]-3(2H)-pyridazinone] here?
**A.** 170 to 171 °C

**Q.** With `CS(=O)(=O)c1ccc(-c2cnn(CC(=O)c3ccc(OC(F)(F)F)cc3)c(=O)c2-c2ccc(F)cc2)cc1` [Example 55, 2-(4-Trifluoromethoxyphenacyl)-4-(4-fluorophenyl)-5-[4-(methylsulfonyl)phenyl]-3(2H)-pyridazinone] as the compound, how does the melting point read?
**A.** 160 to 161 °C

**Q.** With `CS(=O)(=O)c1ccc(-c2cnn(CC(=O)c3csc4ccccc34)c(=O)c2-c2ccc(F)cc2)cc1` [Example 57, 2-[2-(Benzo[b]thien-3-yl)-2-oxoethyl]-4-(4-fluorophenyl)-5-[4-(methylsulfonyl)phenyl]-3(2H)-pyridazinone] as the compound, how does the melting point read?
**A.** 183 to 184 °C

**Q.** For `CC(C)(C)C(=O)Cn1ncc(-c2ccc(S(C)(=O)=O)cc2)c(-c2ccc(F)cc2)c1=O` [Example 59, 2-(3,3-Dimethyl-2-oxobutyl)-4-(4-fluorophenyl)-5-[4-(methylsulfonyl)phenyl]-3(2H)-pyridazinone], which melting point is on record?
**A.** 168 to 170 °C

**Q.** With `CS(=O)(=O)c1ccc(-c2cnn(Cc3cc4ccccc4s3)c(=O)c2-c2ccc(F)cc2)cc1` [Example 61, 2-(2-Benzo[b]thienylmethyl)-4-(4-fluorophenyl)-5-[4-(methylsulfonyl)phenyl]-3(2H)-pyridazinone] as the compound, how does the melting point read?
**A.** 93 to 96 °C

**Q.** For `Cc1n[nH]c(=O)c(-c2ccc(F)cc2)c1-c1ccc(S(C)(=O)=O)cc1` [Example 63, 4-(4-Fluorophenyl)-5-[4-(methylsulfonyl)phenyl]-6-methyl-3(2H)-pyridazinone], which melting point is on record?
**A.** 290 °C (dec.)

**Q.** With `NS(=O)(=O)c1ccc(-c2cnn(CC(F)(F)F)c(=O)c2Oc2ccc(F)cc2)cc1` [Example 71, 2-(2,2,2-Trifluoroethyl)-4-(4-fluorophenoxy)-5-[4-(aminosulfonyl)phenyl]-3(2H)-pyridazinone] as the compound, how does the melting point read?
**A.** 150 to 152 °C

**Q.** For `CS(=O)(=O)c1ccc(-c2cnn(Cc3ccccc3)c(=O)c2Cl)cc1` [Example 78, 2-Benzyl-4-chloro-5-[4-(methylsulfonyl)phenyl]-3(2H)-pyridazinone], which melting point is on record?
**A.** 166 to 167 °C

**Q.** Which melting point does the source give for `Cc1ccc(-c2c(-c3ccc(S(C)(=O)=O)cc3)cnn(CC(F)(F)F)c2=O)cc1` [Example 79, 2-(2,2,2-Trifluoroethyl)-4-(4-methylphenyl)-5-[4-(methylsulfonyl)phenyl]-3(2H)-pyridazinone] here?
**A.** 154 to 156 °C

**Q.** With `Cc1ccsc1-n1ncc(-c2ccc(S(C)(=O)=O)cc2)c(-c2ccc(F)cc2)c1=O` [Example 95, 2-(3-Methyl-2-thienyl)-4-(4-fluorophenyl)-5-[4-(methylsulfonyl)phenyl]-3(2H)-pyridazinone] as the compound, how does the melting point read?
**A.** 215 to 217 °C

**Q.** For `CS(=O)(=O)c1ccc(-c2cnn(-c3cccc(C(F)(F)F)c3)c(=O)c2-c2ccc(Cl)cc2)cc1` [Example 101, 2-(3-Trifluoromethylphenyl)-4-(4-chlorophenyl)-5-[4-(methylsulfonyl)phenyl]-3(2H)-pyridazinone], which melting point is on record?
**A.** 103 to 105 °C

**Q.** With `CS(=O)(=O)c1ccc(-c2cnn(Cc3cccc([N+](=O)[O-])c3)c(=O)c2-c2ccc(F)cc2)cc1` [Example 116, 2-(3-Nitrobenzyl)-4-(4-fluorophenyl)-5-[4-(methylsulfonyl)phenyl]-3(2H)-pyridazinone] as the compound, how does the melting point read?
**A.** 156 to 157 °C

**Q.** For `NS(=O)(=O)c1ccc(-c2cnn(C3CC=CCC3)c(=O)c2-c2ccc(F)cc2)cc1` (stereo not shown) [Example 126], which melting point is on record?
**A.** 206 to 208 °C

**Q.** Which melting point does the source give for `CC1CCCC1n1ncc(-c2ccc(S(C)(=O)=O)cc2)c(-c2ccc(F)cc2)c1=O` (stereo not shown) [Example 131, 2-(2-Methylcyclopentyl)-4-(4-fluorophenyl)-5-[4-(methylsulfonyl)phenyl]-3(2H)-pyridazinone] here?
**A.** 180 to 181 °C

**Q.** With `NS(=O)(=O)c1ccc(-c2cnn(Cc3c(F)cc(F)cc3F)c(=O)c2-c2ccc(F)cc2)cc1` [Example 151, 2-(2,4,6-Trifluorobenzyl)-4-(4-fluorophenyl)-5-[4-(aminosulfonyl)phenyl]-3(2H)-pyridazinone] as the compound, how does the melting point read?
**A.** 201 to 203 °C

**Q.** For `CS(=O)(=O)c1ccc(-c2cnn(-c3ccc([N+](=O)[O-])cc3)c(=O)c2-c2ccc(F)cc2)cc1` [Example 157, 2-(4-Nitrophenyl)-4-(4-fluorophenyl)-5-[4-(methylsulfonyl)phenyl]-3(2H)-pyridazinone], which melting point is on record?
**A.** 110 to 116 °C

**Q.** For `CC(C)(C)c1ccc(-n2ncc(-c3ccc(S(C)(=O)=O)cc3)c(-c3ccc(F)cc3)c2=O)cc1` [Example 159, 2-(4-t-Butylphenyl)-4-(4-fluorophenyl)-5-[4-(methylsulfonyl)phenyl]-3(2H)-pyridazinone], which melting point is on record?
**A.** 132 to 136 °C

**Q.** With `CS(=O)(=O)c1ccc(-c2cnn(-c3ccccc3C=O)c(=O)c2-c2ccc(F)cc2)cc1` [Example 163, 2-(2-Formylphenyl)-4-(4-fluorophenyl)-5-[4-(methylsulfonyl)phenyl]-3(2H)-pyridazinone] as the compound, how does the melting point read?
**A.** 234 to 236 °C

**Q.** Which melting point does the source give for `Cc1cc(C)cc(-n2ncc(-c3ccc(S(C)(=O)=O)cc3)c(-c3ccc(F)cc3)c2=O)c1` [Example 170, 2-(3,5-Dimethylphenyl)-4-(4-fluorophenyl)-5-[4-(methylsulfonyl)phenyl]-3(2H)-pyridazinone] here?
**A.** 130 to 134 °C

**Q.** For `CS(=O)(=O)c1ccc(-c2cnn(-c3ccc(C(F)(F)F)cc3)c(=O)c2-c2ccc(F)cc2)cc1` [Example 174, 2-(4-Trifluoromethylphenyl)-4-(4-fluorophenyl)-5-[4-(methylsulfonyl)phenyl]-3(2H)-pyridazinone], which melting point is on record?
**A.** 171 to 173 °C

**Q.** Which melting point does the source give for `Cc1ccc(-n2ncc(-c3ccc(S(C)(=O)=O)cc3)c(-c3ccc(F)cc3)c2=O)cc1` [Example 177, 2-(4-Methylphenyl)-4-(4-fluorophenyl)-5-[4-(methylsulfonyl)phenyl]-3(2H)-pyridazinone] here?
**A.** 190 to 192 °C

**Q.** Which melting point does the source give for `CS(=O)(=O)c1ccc(-c2cnn(-c3ccsc3)c(=O)c2-c2ccc(F)cc2)cc1` [Example 179, 2-(3-Thienyl)-4-(4-fluorophenyl)-5-[4-(methylsulfonyl)phenyl]-3(2H)-pyridazinone] here?
**A.** 200 to 202 °C

**Q.** With `COc1ccc(-n2ncc(-c3ccc(S(C)(=O)=O)cc3)c(-c3ccc(F)cc3)c2=O)cc1F` [Example 184, 2-(3-Fluoro-4-methoxyphenyl)-4-(4-fluorophenyl)-5-[4-(methylsulfonyl)phenyl]-3(2H)-pyridazinone] as the compound, how does the melting point read?
**A.** 97 to 101 °C

**Q.** For `CS(=O)(=O)c1ccc(-c2cnn(-c3ccc(S(N)(=O)=O)cc3)c(=O)c2-c2ccc(F)cc2)cc1` [Example 186, 2-[4-(Aminosulfonyl)phenyl]-4-(4-fluorophenyl)-5-[4-(methylsulfonyl)phenyl]-3(2H)-pyridazinone], which melting point is on record?
**A.** 213 to 216 °C

**Q.** With `CS(=O)(=O)c1ccc(-c2cnn(-c3ccc(F)cc3)c(=O)c2COc2ccccc2)cc1` [Example 196, 2-(4-Fluorophenyl)-4-phenoxymethyl-5-[4-(methylsulfonyl)phenyl]-3(2H)-pyridazinone] as the compound, how does the melting point read?
**A.** 42 to 75 °C

**Q.** Which melting point does the source give for `CC(C)(C)SCc1c(-c2ccc(S(C)(=O)=O)cc2)cnn(-c2ccc(F)cc2)c1=O` [Example 197, 2-(4-Fluorophenyl)-4-(t-butylthiomethyl)-5-[4-(methylsulfonyl)phenyl]-3(2H)-pyridazinone] here?
**A.** 50 to 70 °C

**Q.** Which melting point does the source give for `CSc1ccc(-c2cnn(-c3ccc(F)cc3)c(=O)c2OC(C)C)cc1` [Example 199, 2-(4-Fluorophenyl)-4-(2-propoxy)-5-[4-(methylthio)phenyl]-3(2H)-pyridazinone] here?
**A.** 135 to 137 °C

**Q.** Which melting point does the source give for `CC(C)Oc1c(-c2ccc(S(C)(=O)=O)cc2)cnn(-c2ccc(F)cc2)c1=O` [Example 200, 2-(4-Fluorophenyl)-4-(2-propoxy)-5-[4-(methylsulfonyl)phenyl]-3(2H)-pyridazinone] here?
**A.** 160 to 162 °C
